Assay results: US20110251220A1, “Pharmaceutical compositions comprising gamma secretase modulators” (priority 2008, published 2011)

How the values were obtained:
[1] = tested on: OPM-2 cells; assay: Cell cycle analysis (propidium iodide), sub-G1 fraction, OPM-2; assay type: cell-based, human; settings: OPM-2, after 72 h
Protocol: (§1) The compound according to example 1, hereinafter referred to as GSI15, (compound RH02015SC, Maybridge, Acros Organics, Geel, Belgium) was freshly dissolved as 26 mM stock solution in Dimethylsulfoxide (DMSO). Multiple myeloma therapeutics used were melphalan (marketed as Alkeran®, GlaxoSmithKline, Munich, Germany) and bortezomib (marketed as Velcade®, Janssen-Cilag, Neuss, Germany). Melphalan was freshly dissolved at 10 mg/ml in 0.9% NaCl-solution. Bortezomib was freshly dissolved at 100 ng/ml in 0.9% NaCl solution. Gamma Secretase Inhibitor (GSI) treatment for apoptosis assessment by AnnexinV/PI staining, cell cycle analysis and coculture experiments was performed in 6-well plates. GSI15 stock solution was added directly to the cell suspension. GSI treatment for assaying proliferation was performed in 96-well plates. […]
(§2) For cell cycle analysis 2×10^5 cells were spun down, medium was aspirated and cells washed with PBS. […] After 10 minutes incubation in the dark at room temperature, cells were analyzed by flow cytometry. The amount of apoptotic cells was determined by AnnexinV/propidium iodide staining using Human AnnexinV-FITC Kit (Bender Medsystems, Vienna, Austria), according to manufacturer's protocol. […] Cells were then spun down again, resuspended in binding buffer containing PI and analyzed by flow cytometry.

[2] = tested on: U266 cells; assay: Cell cycle analysis (propidium iodide), U266; assay type: cell-based, human
Protocol: as §1, §2

[3] = tested on: OPM-2 cells; assay: PARP cleavage by Western blotting, OPM-2; assay type: cell-based, human
Protocol: In osteoclast coculture experiments, OPM-2 cells (1×10^6 cells) were added to osteoclasts in 60 mm dishes (4×10^6 cells per dish) in 3 ml MEM medium supplemented with 10% FCS, 100 U/ml penicillin, 100 μg/ml streptomycin. GSI15 (30 μM, 60 μM) or DMSO (equivalent to 60 μM) as solvent control were added to each well (daily treatment). After 48 h, 0.5 ml OPM-2 cell suspension were harvested per well and subjected to AnnexinV-FITC/PI staining. Remaining OPM-2 cells were harvested and lysed for either RNA or protein preparation. The monolayer of osteoclasts was washed twice with ice-cold PBS and then lysed for either RNA or protein preparation directly on the plate.
In osteoblast coculture experiments, OPM-2 cells (7.5×10^5) were added to osteoblasts (2×10^5 cells) in 6-well plates in 2 ml DMEM/HAM's F12 medium supplemented with 10% FCS, 100 U/ml penicillin, 100 μg/ml streptomycin. GSI15 (40 μM, 60 μM, 80 μM) or DMSO (equivalent to 80 μM) as solvent control was added to each well (daily treatment). After 72 h of coculture and GSI15 treatment OPM-2 cells in suspension were aspirated and subjected to protein lysis. The remaining monolayer of osteoblasts was washed twice with ice-cold PBS and lysed directly on the plate with protein lysis buffer.
Whole cell extracts were prepared and quantified as described in Jundt F, Anagnostopoulos I, Forster R, Mathas S, Stein H, Dorken B. Activated Notch1 signaling promotes tumor cell proliferation and survival in Hodgkin and anaplastic large cell lymphoma. Blood. 2002; 99:3398-3403. Proteins (30 μg) were resolved by sodium dodecyl sulfate-polyacrylamide gel electrophoresis (SDS-PAGE) and transferred to nitrocellulose membranes. Protein loading was normalized by Ponceau red staining. […]
(§3) Secondary antibodies were goat anti-mouse (Promega, Mannheim, Germany), goat anti-rat (Dianova, Hamburg, Germany), and goat anti-rabbit (Santa Cruz Biotechnology) horseradish peroxidase (HRP)-conjugated antibodies. Detection was done using Pico chemi-luminescence reagent (Perbio Science, Bonn, Germany).

[4] = tested on: U266 cells; assay: PARP cleavage by Western blotting, U266; assay type: cell-based, human
Protocol: Whole cell extracts were prepared and quantified as described in Jundt F, Anagnostopoulos I, Forster R, Mathas S, Stein H, Dorken B. Activated Notch1 signaling promotes tumor cell proliferation and survival in Hodgkin and anaplastic large cell lymphoma. Blood. 2002; 99:3398-3403. Proteins (30 μg) were resolved by sodium dodecyl sulfate-polyacrylamide gel electrophoresis (SDS-PAGE) and transferred to nitrocellulose membranes. Protein loading was normalized by Ponceau red staining. Membranes were incubated with monoclonal mouse anti-Notch1 antibody (no. 552466; BD Biosciences, Heidelberg, Germany), anti-Jagged1 antibody (sc-8303; Santa Cruz Biotechnology), polyclonal rabbit anti-Delta antiboday (Santa Cruz Biotechnology), polyclonal rabbit anti-cleaved PARP (Asp214) antibody (Cell Signaling Technologies, Frankfurt a.M., Germany) or mouse monoclonal anti-tubulin antibody (Sigma, Deisenhofen, Germany).
as §3

[5] = tested on: MSC; assay: Viability assay, MSC; assay type: cell-based, human
Protocol: For assaying proliferation/viability of cells CellTiter-Glo Luminescent Cell Viability Assay (Promega, Mannheim, Germany) was used. In this assay the number of viable cells at a given time point is determined by quantification of ATP present, which serves as a measure of metabolically active cells. The assay was carried out according to manufacturer's protocol. Briefly, cells were plated in 96-well plates at 10,000 cells per well in 100 μl medium and treated with indicated amounts of GSI15, with DMSO as solvent control or left untreated. Each treatment was done in four independent replicates in different wells. 24 h and 48 h after start of treatment 30 μl per well were transferred into an opaque-walled plate and lysed using CellTiter-Glo solution. Luminescence was recorded and integrated for two seconds per well. Average values were calculated and normalized to the respective untreated sample.

[6] = tested on: male Sprague-Dawley rats; assay: PAN-model of albuminuric glomerular disease; assay type: in vivo, rat; settings: day 7, 500 μg/100 g rat i.p. once per day, compared to PAN alone
Protocol: For the in vivo studies male Sprague-Dawley rats were purchased from Charles River and treated with puromycin aminoglycoside (PAN) to induce albuminuric glomerular disease as described previously (Niranjan et al., “The Notch pathway in podocytes plays a role in the development of glomerular disease.” Nat. Med. 14: 290-298, 2008). Rats were injected PAN (150 mg/kg) once. The test compounds were administered intraperitoneally (500 μg/100 g rat) once per day (n=4 animals per group). Injection of test compounds were started one day after PAN injection. All studies were performed in accordance with the European Union normative. As a positive control one group of rats received gamma secretase inhibitor DAPT.
Urinary albumine was measured at the indicated days as described previously (Sanchez-Nino et al., “The MIF receptor CD74 in diabetic podocyte injury”. J. Am. Soc. Nephrol. 20: 353-362, 2009). For total protein measurement urine samples were centrifuged and pellets were diluted in distilled water. Exton reagent (230 mM sulfosalic acid, 1.4 M sodium sulfate) was added and after 10 minutes absorbance was measured at 620 nm.

In the case of `CC(C)c1ccc(S(=O)(=O)Nc2cccnc2Oc2ccc(Cl)cc2)cc1` [Example 1, N-(2-(4-chlorophenoxy)pyridin-3-yl)-4-isopropylbenzenesulfonamide], the sub-G1 fraction [1] is reported as “increase in the sub-G1 fraction”, the “sub-G1 fraction / cell cycle” value [2] is reported as “no change was detected” and the PARP cleavage ([3]; MM cells in coculture with OBL or MSC) is reported as “apoptosis induction”. For the same compound, the “PARP cleavage product (apoptosis marker)” value ([3]; OPM-2, 30 μM GSI15) was “Apoptosis induction could be shown”, the PARP cleavage ([3]; OPM-2 in mono- and coculture with OCL) was “Strong induction of PARP cleavage” and the “PARP cleavage product (apoptosis marker)” value [4] was “not in the U266 cell line”. The viability [5] was “no difference between untreated and GSI15 treated”, the inhibition of albuminuria [6] was 56% and the inhibition of proteinuria [6] was 50%.
